Measured values published in patent US7211566B2 (Universite De Sherbrooke, priority 2003, dated 2007).
Square brackets hold non-standard residues; d marks the D form. Peptide text beside a SMILES is read from it. Oic = O=C(O)[C@@H]1C[C@@H]2CCCC[C@@H]2N1; d2Nal = N[C@H](Cc1ccc2ccccc2c1)C(=O)O; αMeF = C[C@](N)(Cc1ccccc1)C(=O)O; Orn = NCCC[C@H](N)C(=O)O

Legend:
[1] = target: T1, angiotensin converting enzyme (ACE) (Oryctolagus cuniculus, UniProt P12822); assay: In vitro metabolic stability against purified rabbit lung ACE; assay type: in vitro ADME; details: purified angiotensin converting enzyme from rabbit lung, pH 7.5, peptide 200 μM, 60 min at 37° C., mean ± SEM of 3, read-out: Peptide metabolism (%) Rabbit lung ACE
T1 construct: In Vitro Biochemical Stability Assays Against Purified Native Enzymes; purchased Sigma, St. Louis, Mo; host or cells: rabbit lung
T1 sequence (P12822 34-1310): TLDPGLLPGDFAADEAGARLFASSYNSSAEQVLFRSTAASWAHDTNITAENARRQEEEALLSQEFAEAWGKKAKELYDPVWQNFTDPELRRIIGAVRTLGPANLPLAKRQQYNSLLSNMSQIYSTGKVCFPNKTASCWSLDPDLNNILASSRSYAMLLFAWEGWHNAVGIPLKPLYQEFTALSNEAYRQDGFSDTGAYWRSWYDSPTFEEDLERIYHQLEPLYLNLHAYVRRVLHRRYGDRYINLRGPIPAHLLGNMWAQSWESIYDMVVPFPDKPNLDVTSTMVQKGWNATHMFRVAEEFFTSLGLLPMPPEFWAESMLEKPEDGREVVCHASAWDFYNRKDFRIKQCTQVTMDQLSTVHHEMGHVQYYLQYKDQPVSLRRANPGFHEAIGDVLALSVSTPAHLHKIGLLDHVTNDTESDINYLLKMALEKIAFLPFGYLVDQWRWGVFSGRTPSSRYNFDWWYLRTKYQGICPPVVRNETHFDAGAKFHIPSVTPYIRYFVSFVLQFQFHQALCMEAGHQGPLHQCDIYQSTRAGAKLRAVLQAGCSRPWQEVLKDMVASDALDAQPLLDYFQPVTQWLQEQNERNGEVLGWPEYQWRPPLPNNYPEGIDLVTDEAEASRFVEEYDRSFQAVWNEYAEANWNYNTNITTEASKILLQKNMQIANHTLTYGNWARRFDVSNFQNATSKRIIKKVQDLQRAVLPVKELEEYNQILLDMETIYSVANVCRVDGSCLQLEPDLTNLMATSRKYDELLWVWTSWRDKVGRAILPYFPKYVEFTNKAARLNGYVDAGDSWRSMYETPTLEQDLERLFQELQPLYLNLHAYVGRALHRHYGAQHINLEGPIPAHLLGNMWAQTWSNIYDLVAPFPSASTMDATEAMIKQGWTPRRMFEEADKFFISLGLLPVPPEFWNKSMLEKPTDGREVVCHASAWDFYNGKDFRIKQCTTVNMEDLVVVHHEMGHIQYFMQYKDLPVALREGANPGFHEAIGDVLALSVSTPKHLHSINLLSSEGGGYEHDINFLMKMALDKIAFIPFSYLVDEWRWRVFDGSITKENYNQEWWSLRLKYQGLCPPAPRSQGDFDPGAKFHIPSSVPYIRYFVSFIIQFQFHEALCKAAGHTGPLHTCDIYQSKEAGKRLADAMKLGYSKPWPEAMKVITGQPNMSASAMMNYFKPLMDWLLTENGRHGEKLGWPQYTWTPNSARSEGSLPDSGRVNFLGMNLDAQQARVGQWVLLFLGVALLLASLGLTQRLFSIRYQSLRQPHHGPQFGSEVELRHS
Protocol: These assays were performed using three enzyme preparations: purified angiotensin converting enzyme (ACE; from rabbit lung), human plasma as a, source of aminopeptidase M (AmM) and human platelets as a source of aminopeptidase P (AmP).
Purified ACE from rabbit lungs (Sigma, St. Louis, Mo.) was dissolved in PBS (50 mM, pH 7.5, containing 300 mM NaCl and 10 μM ZnCl2; the final concentration of ACE was 45 μg/ml). Each of the peptide antagonists (200 μM) was incubated for 60 min at 37° C. with ACE (8.5 μl) (total volume medium, 187.5 μl). The enzymatic reaction was then terminated by boiling.
The experimental protocol for the measurement of ACE activity has been described elsewhere (Drapeau et a). 1993, J Pharmacol Exp Ther 266, 192–198; Gobeil et al., 1996, supra).

BKB1 receptor = target: T2, BKB1 receptor (Homo sapiens, UniProt P46663); assay: Isolated human umbilical vein (hUV) organ bath, antagonist potency pA2; assay type: cell-based; set-up: the hUV that contains BKB1 and BKB2 receptors; from tissue; host or cells: isolated human umbilical vein (hUV); details: human umbilical vein treated with HOE 140; mean ± SEM of 4–7 experiments; read-out: Antagonist potencies (pA2) BKB1-R hUV (converted)
T2 sequence (P46663 1-353): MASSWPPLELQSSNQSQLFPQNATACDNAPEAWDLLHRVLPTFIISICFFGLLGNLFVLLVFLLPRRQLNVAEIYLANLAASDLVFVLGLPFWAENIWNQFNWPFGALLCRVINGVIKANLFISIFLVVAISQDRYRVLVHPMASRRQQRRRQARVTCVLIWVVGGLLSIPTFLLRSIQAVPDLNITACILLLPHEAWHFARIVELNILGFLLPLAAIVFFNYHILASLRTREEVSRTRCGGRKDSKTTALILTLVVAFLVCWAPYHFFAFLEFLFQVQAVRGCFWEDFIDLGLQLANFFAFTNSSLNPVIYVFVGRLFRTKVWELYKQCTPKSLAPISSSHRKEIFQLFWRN
Protocol: Selected antagonists were tested for activities in three isolated organs: (1) the rabbit aorta (rbA), (2) the human umbilical vein (hUV) and (3) the rabbit jugular vein (rbJV).
All details regarding the procurements of human umbilical cords and rabbit vessels as well as, the procedures for preparing the isolated organs and the experimental protocols are described in these respective publications: rbA (Rioux et al. 1973, Can J Physiol Pharmacol 51, 114–121); hUV (Gobeil et al. 1996, Br J Pharmacol 118, 289–294), and rbJV (Gaudreau et al. 1981, Can J Physiol Pharmacol 59, 371–379).
The rabbit jugular vein (a pure BKB2 receptor system) was used to exclude any action of the new compounds on the BKB2 receptor and thus establish their selectivity. All tissues were treated with captopril (1 μM) to prevent the degradation of the peptidic agonists.
Repeated applications of a single and double concentration of BK (on rbJV,) or of desArg^9BK (rbA and hUV) were made in the absence and in presence of the various peptides to evaluate their apparent affinities as antagonists, in terms of pA2 (-log10 of the molar concentration of antagonist that reduces the effect of a double concentration of agonist to that of a single one) (Schild 1947, Br J Pharmacol 2, 189–206).

In the case of `CC[C@H](C)[C@H](NC(=O)[C@@H](Cc1ccc2ccccc2c1)NC(=O)[C@H](CO)NC(=O)[C@](C)(Cc1ccccc1)NC(=O)CNC(=O)[C@@H]1CCCN1C(=O)[C@@H]1C[C@@H]2CCCC[C@@H]2N1C(=O)[C@H](CCCNC(=N)N)NC(=O)[C@H](CCCN)NC(C)=O)C(=O)O` [compound c, Ac-Orn[Oic^2,(α-Me)Phe^5,D-βNal^7,Ile^8]desArg^9BK] (Ac-[Orn]R[Oic]PG[αMeF]S[d2Nal]I-OH), the metabolised at 1 h, 200 µM [1] is reported as 0% and the Kb (BKB1 receptor) is reported as 3.47 nM.
Compound `CC[C@H](C)[C@H](NC(=O)[C@@H](Cc1ccc2ccccc2c1)NC(=O)[C@H](CO)NC(=O)[C@](C)(Cc1ccccc1)NC(=O)CNC(=O)[C@@H]1CCCN1C(=O)[C@@H]1C[C@@H]2CCCC[C@@H]2N1C(=O)[C@H](CCCNC(=N)N)NC(=O)[C@H](CCCCN)NC(C)=O)C(=O)O` [Ac-Lys[Oic^2,(α-Me)Phe^5,D-βNal^7,Ile^8]desArg^9BK] (Ac-KR[Oic]PG[αMeF]S[d2Nal]I-OH) has a metabolised at 1 h, 200 µM [1] of 0% and a Kb (BKB1 receptor) of 3.72 nM.
